From patent publication US9809574B2, “Isoindoline or isoquinoline compounds, a process for their preparation and pharmaceutical compositions containing them” (LES LABORATOIRES SERVIER, priority 2013, dated 2017)
Counter-ions that a name gives are not always drawn.

Key:
Bcl-2 protein = Bcl-2 protein (histag-Bcl-2, UniProtKB P10415) (Homo sapiens (Human), UniProt P10415); assay: Inhibition of Bcl-2 by the fluorescence polarisation technique; assay type: binding; settings: for IC50: fluorescence polarisation test, incubation for 2 hours, read-out: IC50 (nM) Bcl-2 FP
Chain of Bcl-2 protein (P10415 whole entry): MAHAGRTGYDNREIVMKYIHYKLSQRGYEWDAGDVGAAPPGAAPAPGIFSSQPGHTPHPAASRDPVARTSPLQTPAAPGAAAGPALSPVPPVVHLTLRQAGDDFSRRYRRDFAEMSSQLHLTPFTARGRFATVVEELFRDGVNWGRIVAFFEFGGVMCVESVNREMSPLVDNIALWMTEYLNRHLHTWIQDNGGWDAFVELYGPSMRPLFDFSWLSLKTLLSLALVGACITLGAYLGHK
Excerpt: For partial inhibitors, the percentage fluorescence polarisation inhibition for a given concentration of the test compound is indicated.

[1] = system: RS4; 11 leukaemia cell line; assay: In vitro cytotoxicity, Microculture Tetrazolium Assay (MTT); assay type: cell-based; settings: 11 cells exposed for 48 hours
Experimental: The cytotoxicity studies were carried out on the RS4; 11 leukaemia cell line and on H146 small Cell Lung Carcinoma cell line. The cells are distributed onto microplates and exposed to the test compounds for 48 hours. The cell viability is then quantified by a colorimetric assay, the Microculture Tetrazolium Assay (Cancer Res., 1987, 47, 939-942).

| SMILES | IC50 (Bcl-2 protein) [nM] | IC50 ([1]; Homo sapiens) [nM] | IC50 [1] [nM] | inhibition at 3.3 µM (Bcl-2 protein; partial inhibitor, concentration of test compound 3.3 μM, read-out: percentage fluorescence polarisation inhibition (Bcl-2 FP)) [%] |
| --- | --- | --- | --- | --- |
| Cc1c(C(=O)N(C)c2ccc(O)cc2)cc(-c2cc3c(cc2C(=O)N2Cc4ccccc4C[C@H]2C)CN(C(=O)NC2CCCCC2)CC3)n1C [Example 792, N-Cyclohexyl-6-{4-[(4-hydroxyphenyl)(methyl)carbamoyl]-1,5-dimethyl-1H-pyrrol-2-yl}-7-[(3R)-3-methyl-1,2,3,4-tetrahydroisoquinoline-2-carbonyl]-1,2,3,4-tetrahydroisoquinoline-2-carboxamide] | 4.6 | 21 | – | – |
| C[C@@H]1Cc2ccccc2CN1C(=O)c1cc2c(cc1-c1cc(C(=O)N(c3ccccc3)c3ccc(O)cc3)c3n1CCCC3)CN(C(=O)Oc1ccccc1)C2 [Example 133, Phenyl 5-{1-[(4-hydroxyphenyl)(phenyl)carbamoyl]-5,6,7,8-tetrahydroindolizin-3-yl}-6-[(3R)-3-methyl-1,2,3,4-tetrahydroisoquinoline-2-carbonyl]-2,3-dihydro-1H-isoindole-2-carboxylate] | 7 | 8.2 | – | – |
| C[C@@H]1Cc2ccccc2CN1C(=O)c1cc2c(cc1-c1cc(C(=O)N(C)c3ccc(O)cc3)c3n1CCCC3)CCN(C(=O)Cc1ccccc1)C2 [Example 36, N-(4-Hydroxyphenyl)-N-methyl-3-{7-[(3R)-3-methyl-1,2,3,4-tetrahydroisoquinoline-2-carbonyl]-2-(2-phenylacetyl)-1,2,3,4-tetrahydroisoquinolin-6-yl}-5,6,7,8-tetrahydroindolizine-1-carboxamide] | 4.8 | 6.2 | – | – |
| CN(C(=O)c1cc(-c2cc3c(cc2C(=O)N2Cc4ccccc4C[C@H]2CN2CCOCC2)CN(S(=O)(=O)Cc2ccccc2)CC3)n2c1CCCC2)c1ccc(O)cc1 [Example 4, N-(4-Hydroxyphenyl)-N-methyl-3-{7-[(3S)-3-(morpholin-4-ylmethyl)-1,2,3,4-tetrahydroisoquinoline-2-carbonyl]-2-phenylmethanesulfonyl-1,2,3,4-tetrahydroisoquinolin-6-yl}-5,6,7,8-tetrahydroindolizine-1-carboxamide] | 9.2 | 71 | – | – |
| Cc1c(C(=O)N(C)c2ccc(O)cc2)cc(-c2cc3c(cc2C(=O)N2Cc4ccccc4C[C@H]2C)CN(C(=O)Oc2ccc(F)cc2)C3)n1C [Example 106, 4-Fluorophenyl 5-{4-[(4-hydroxyphenyl)(methyl)carbamoyl]-1,5-dimethyl-1H-pyrrol-2-yl}-6-[(3R)-3-methyl-1,2,3,4-tetrahydroisoquinoline-2-carbonyl]-2,3-dihydro-1H-isoindole-2-carboxylate] | 5.3 | 38 | – | – |
| Cc1c(C(=O)N(C)c2ccccc2)cc(-c2cc3c(cc2C(=O)N2Cc4ccccc4C[C@H]2C)CN(C(=O)Cc2ccc(NCCN(C)C)cc2)CC3)n1C [Example 149, 5-{2-[2-(4-{[2-(Dimethylamino)ethyl]amino}phenyl)acetyl]-7-[(3R)-3-methyl-1,2,3,4-tetrahydroisoquinoline-2-carbonyl]-1,2,3,4-tetrahydroisoquinolin-6-yl}-N,1,2-trimethyl-N-phenyl-1H-pyrrole-3-carboxamide] | 11 | 124 | – | – |
| Cc1c(C(=O)N(C)c2ccc(O)cc2)cc(-c2cc3c(cc2C(=O)N2Cc4ccccc4C[C@H]2CN(C)C)CN(C(=O)Oc2ccccc2)CC3)n1C [Example 211, Phenyl 7-[(3S)-3-[(dimethylamino)methyl]-1,2,3,4-tetrahydroisoquinoline-2-carbonyl]-6-{4-[(4-hydroxyphenyl)(methyl)carbamoyl]-1,5-dimethyl-1H-pyrrol-2-yl}-1,2,3,4-tetrahydroisoquinoline-2-carboxylate] | 3.4 | 6.9 | – | – |
| C[C@@H]1Cc2ccccc2CN1C(=O)c1cc2c(cc1-c1cc(C(=O)N(C)c3ccc(O)cc3)c3n1CCCC3)CN(C(=O)NCc1ccccc1)C2 [Example 61, N-Benzyl-5-{1-[(4-hydroxyphenyl)(methyl)carbamoyl]-5,6,7,8-tetrahydroindolizin-3-yl}-6-[(3R)-3-methyl-1,2,3,4-tetrahydroisoquinoline-2-carbonyl]-2,3-dihydro-1H-isoindole-2-carboxamide] | 4.4 | 85 | – | – |
| Cc1ccc(OC(=O)N2CCc3cc(-c4cc(C(=O)N(C)c5ccccc5)c(C)n4C)c(C(=O)N4Cc5ccccc5C[C@H]4CN4CCOCC4)cc3C2)cc1 [Example 591, 4-Methylphenyl 6-{1,5-dimethyl-4-[methyl(phenyl)carbamoyl]-1H-pyrrol-2-yl}-7-[(3S)-3-(morpholin-4-ylmethyl)-1,2,3,4-tetrahydroisoquinoline-2-carbonyl]-1,2,3,4-tetrahydroisoquinoline-2-carboxylate] | 2.5 | 7 | – | – |
| CC(Cc1ccc(Cl)cc1)C(=O)N1Cc2cc(C(=O)N3Cc4ccccc4C[C@H]3C)c(-c3cc(C(=O)N(C)c4ccc(O)cc4)c4n3CCCC4)cc2C1 (stereo partly drawn) [Example 24, 3-(2-{2-[(4-Chlorophenyl)methyl]propanoyl}-6-[(3R)-3-methyl-1,2,3,4-tetrahydroisoquinoline-2-carbonyl]-2,3-dihydro-1H-isoindol-5-yl)-N-(4-hydroxyphenyl)-N-methyl-5,6,7,8-tetrahydroindolizine-1-carboxamide] | 19 | > 150 | – | – |
| Cc1c(C(=O)N(C)c2ccccc2)cc(-c2cc3c(cc2C(=O)N2Cc4ccccc4C[C@H]2C)CN(C(=O)Cc2ccc(C#N)cc2)CC3)n1C [Example 150, 5-{2-[2-(4-Cyanophenyl)acetyl]-7-[(3R)-3-methyl-1,2,3,4-tetrahydroisoquinoline-2-carbonyl]-1,2,3,4-tetrahydroisoquinolin-6-yl}-N,1,2-trimethyl-N-phenyl-1H-pyrrole-3-carboxamide] | 4.3 | 16 | – | – |
| Cc1c(C(=O)N(C)c2ccc(O)cc2)cc(-c2cc3c(cc2C(=O)N2Cc4ccccc4C[C@H]2CN2CCOCC2)CN(C(=O)/C=C/c2ccc(Cl)c(Cl)c2)CC3)n1C [Example 137, 5-{2-[(2E)-3-(3,4-dichlorophenyl)prop-2-enoyl]-7-[(3S)-3-(morpholin-4-ylmethyl)-1,2,3,4-tetrahydroisoquinoline-2-carbonyl]-1,2,3,4-tetrahydroisoquinolin-6-yl}-N-(4-hydroxyphenyl)-N,1,2-trimethyl-1H-pyrrole-3-carboxamide] | 9.4 | 47 | – | – |
| C[C@@H]1Cc2ccccc2CN1C(=O)c1cc2c(cc1-c1cc(C(=O)N(C)c3ccc(O)cc3)c3n1CCCC3)CCN(C(=O)Nc1ccccc1)C2 [Example 71, 6-{1-[(4-Hydroxyphenyl)(methyl)carbamoyl]-5,6,7,8-tetrahydroindolizin-3-yl}-7-[(3R)-3-methyl-1,2,3,4-tetrahydroisoquinoline-2-carbonyl]-N-phenyl-1,2,3,4-tetrahydroisoquinoline-2-carboxamide] | 3.7 | 9.9 | – | – |
| Cc1ccc(CC(C)C(=O)N2Cc3cc(C(=O)N4Cc5ccccc5C[C@H]4C)c(-c4cc(C(=O)N(C)c5ccc(O)cc5)c5n4CCCC5)cc3C2)cc1 (stereo partly drawn) [Example 25, N-(4-Hydroxyphenyl)-N-methyl-3-{6-[(3R)-3-methyl-1,2,3,4-tetrahydroisoquinoline-2-carbonyl]-2-{2-[(4-methylphenyl)methyl]propanoyl}-2,3-dihydro-1H-isoindol-5-yl}-5,6,7,8-tetrahydroindolizine-1-carboxamide] | 29 | 144 | – | – |
| CCS(=O)(=O)N1CCc2cc(-c3cc(C(=O)N(C)c4ccc(O)cc4)c4n3CCCC4)c(C(=O)N3Cc4ccccc4C[C@H]3C)cc2C1 [Example 56, 3-[2-(Ethanesulfonyl)-7-[(3R)-3-methyl-1,2,3,4-tetrahydroisoquinoline-2-carbonyl]-1,2,3,4-tetrahydroisoquinolin-6-yl]-N-(4-hydroxyphenyl)-N-methyl-5,6,7,8-tetrahydroindolizine-1-carboxamide] | 3.8 | 59 | – | – |
| Cc1c(C(=O)N(C)c2ccc(O)cc2)cc(-c2cc3c(cc2C(=O)N2Cc4ccccc4C[C@H]2C)CN(C(=O)OC2CCC(N)CC2)CC3)n1C (stereo partly drawn) [Example 801, (1r,4r)-4-Aminocyclohexyl 6-{4-[(4-hydroxyphenyl)(methyl)carbamoyl]-1,5-dimethyl-1H-pyrrol-2-yl}-7-[(3R)-3-methyl-1,2,3,4-tetrahydroisoquinoline-2-carbonyl]-1,2,3,4-tetrahydroisoquinoline-2-carboxylate hydrochloride] | 2.7 | – | > 150 | – |
| Cc1c(C(=O)N(C)c2ccc(O)cc2)cc(-c2cc3c(cc2C(=O)N2Cc4ccccc4C[C@H]2C)CN(C(=O)OC2CCCCC2)CC3)n1C [Example 790, Cyclohexyl 6-{4-[(4-hydroxyphenyl)(methyl)carbamoyl]-1,5-dimethyl-1H-pyrrol-2-yl}-7-[(3R)-3-methyl-1,2,3,4-tetrahydroisoquinoline-2-carbonyl]-1,2,3,4-tetrahydroisoquinoline-2-carboxylate] | 3.4 | 20 | – | – |
| CN(C(=O)c1cc(-c2cc3c(cc2C(=O)N2Cc4ccccc4C[C@H]2CN2CCOCC2)CNC3)n2c1CCCC2)c1ccc(O)cc1 [Example 7, N-(4-Hydroxyphenyl)-N-methyl-3-{6-[(3S)-3-(morpholin-4-ylmethyl)-1,2,3,4-tetrahydroisoquinoline-2-carbonyl]-2,3-dihydro-1H-isoindol-5-yl}-5,6,7,8-tetrahydroindolizine-1-carboxamide; dihydrochloride salt] | – | 1080 | – | 72 |
| Cc1c(C(=O)N(C)c2ccc(O)cc2)cc(-c2cc3c(cc2C(=O)N2Cc4ccccc4C[C@H]2CCCN2CCOCC2)CN(C(=O)OC2CCCCC2)CC3)n1C [Example 809, Cyclohexyl 6-{4-[(4-hydroxyphenyl)(methyl)carbamoyl]-1,5-dimethyl-1H-pyrrol-2-yl}-7-[(3R)-3-[3-(morpholin-4-yl)propyl]-1,2,3,4-tetrahydroisoquinoline-2-carbonyl]-1,2,3,4-tetrahydroisoquinoline-2-carboxylate] | 3.1 | 9.8 | – | – |
